{"source": "patent US20230133657A1", "about": "“THE USE OF MENTHOL FOR THE PREPARATION OF A TOPICAL COMPOSITION TO IMPROVE NEURODEGENERATIVE DISEASE AND STROKE” (CHINA MEDICAL UNIVERSITY, priority 2020, published 2023)", "key": {"[1]": {"test_system": "Parkinson's disease mice (MPTP)", "assay": "Rotarod test (endurance exercise test), Parkinson's disease mouse model", "format": "in vivo", "settings": "forepaws soaked in 8% (wt %) menthol solution 10 seconds per day", "from_the_text": "Laboratory mice are divided into three groups: “Control” consisting of normal mice; “MPTP” consisting of Parkinson's disease mice fed with MPTP for creation of a disease model; “MPTP+8% ME” consisting of Parkinson's disease mice which are fed with MPTP for creation of a disease model and whose forepaws are soaked in 8% menthol. For administration of menthol, two forepaws of each “MPTP+8% ME” mouse are soaked in 8% (wt %) menthol solution for 10 seconds per day from Day 1 to Day 5 and from Day 8 to Day 10, respectively. For creation of a Parkinson's disease mouse model, MPTP (daily dosage: 10 mg/kg) is injected into “MPTP” and “MPTP+8% ME” mice through the intraperitoneal (I.P.) injection on three consecutive days from Day 3 to Day 5. By Day 10, the endurance exercise test, the dopamine assay and the immunohistochemical staining are conducted for any improvement in the symptom of Parkinson's disease due to menthol. The rotarod test is a performance test in which a rodent keeps running on a self-accelerated rotating rod activated from 4 rpm (initial rotation rate) to 40 rpm (maximum and constant rotation rate in five minutes) on Day 1 (Day 10) for estimation of the retention time of the rodent on the rotating rod (FIG. 1B). As shown in the ordinate of FIG. 1B, “A latency to fall” denotes the difference between the retention time on Day 10 and the retention time on Day 1."}, "[2]": {"test_system": "Parkinson's disease mice (MPTP)", "assay": "Immunohistochemical (IHC) staining of TH in substantia nigra", "format": "in vivo, mouse", "settings": "forepaws soaked in 8% menthol", "from_the_text": "Laboratory mice are divided into three groups: “Control” consisting of normal mice; “MPTP” consisting of Parkinson's disease mice fed with MPTP for creation of a disease model; “MPTP+8% ME” consisting of Parkinson's disease mice which are fed with MPTP for creation of a disease model and whose forepaws are soaked in 8% menthol. For administration of menthol, two forepaws of each “MPTP+8% ME” mouse are soaked in 8% (wt %) menthol solution for 10 seconds per day from Day 1 to Day 5 and from Day 8 to Day 10, respectively. For creation of a Parkinson's disease mouse model, MPTP (daily dosage: 10 mg/kg) is injected into “MPTP” and “MPTP+8% ME” mice through the intraperitoneal (I.P.) injection on three consecutive days from Day 3 to Day 5. By Day 10, the endurance exercise test, the dopamine assay and the immunohistochemical staining are conducted for any improvement in the symptom of Parkinson's disease due to menthol. The level of TH in a mouse's substantia nigra is tested through IHC staining (FIG. 1D). […] A mouse's nerve cells containing TH for generation of dopamine could be damaged due to Parkinson's disease."}, "[3]": {"test_system": "ischemic stroke mice (MCAO)", "assay": "Rotarod test, ischemic stroke mouse model", "format": "in vivo", "from_the_text": "Laboratory mice are divided into four groups: “Control” consisting of mice processed through MCAO for the ischemic stroke; “Water” consisting of mice which are processed for the ischemic stroke through MCAO and whose limbs are soaked in water; “MCAO+8% ME” consisting of mice which are processed for the ischemic stroke through MCAO and whose limbs are soaked in 8% menthol; “MCAO+16% ME” consisting of mice which are processed for the ischemic stroke through MCAO and whose limbs are soaked in 16% menthol. In Embodiment 2, menthol is prepared with 95% ethanol. Referring to the experiment schedule in FIG. 2A, mice are sacrificed on Day 7 for following analyses. Mice are processed for the ischemic stroke through MCAO on Day 0 and administrated with menthol once per day from Day 0 to Day 6. On the day of processing mice through MCAO, the limbs of a mouse resting 20 minutes after the operation are soaked in menthol for one minute; a mouse's limbs are soaked in menthol for 15 seconds only from Day 2 to Day 6; comparatively, a Water mouse's limbs are soaked in water. The sensorimotor nerve function test is conducted for mice one day before MCAO processing (i.e., pre-MCAO) and 1, 3 and 6 days after MCAO processing; the cerebral infarction volume is measured for checking any improvement in the stroke due to menthol on Day 7 after MCAO processing. In the rotarod test, a mouse is placed on a self-accelerated rotating rod (rotation rate from 4 to 40 rpm) on Day 3 and Day 6 for measuring the retention time (FIG. 2B-1 and FIG. 2B-2) and comparing test results with those of “pre-MCAO”. Mice in each group are tested three times. The test results are analyzed with the one-way ANOVA for further reviews through the multiple comparison analysis (Dunnett's method) and statistics of between-group variances (*p<0.05). The asterisk (*) means a significant difference between “Control” and “Water” or “MCAO+8% ME” (*p<0.05; **p<0.01). […] As shown in FIGS. 4B-1 and 4B-2, the test results are analyzed with the one-way ANOVA for further reviews through the multiple comparison analysis (Duncan's method) and statistics of between-group variances (*p<0.05; *: comparison with the “Water” group; comparison with the “16% ME” group; comparison with the “8% ME” group). […]"}, "[4]": {"test_system": "ischemic stroke mice (MCAO)", "assay": "Adhesive removal test, ischemic stroke mouse model", "format": "in vivo", "from_the_text": "Laboratory mice are divided into four groups: “Control” consisting of mice processed through MCAO for the ischemic stroke; “Water” consisting of mice which are processed for the ischemic stroke through MCAO and whose limbs are soaked in water; “MCAO+8% ME” consisting of mice which are processed for the ischemic stroke through MCAO and whose limbs are soaked in 8% menthol; “MCAO+16% ME” consisting of mice which are processed for the ischemic stroke through MCAO and whose limbs are soaked in 16% menthol. In Embodiment 2, menthol is prepared with 95% ethanol. Referring to the experiment schedule in FIG. 2A, mice are sacrificed on Day 7 for following analyses. Mice are processed for the ischemic stroke through MCAO on Day 0 and administrated with menthol once per day from Day 0 to Day 6. On the day of processing mice through MCAO, the limbs of a mouse resting 20 minutes after the operation are soaked in menthol for one minute; a mouse's limbs are soaked in menthol for 15 seconds only from Day 2 to Day 6; comparatively, a Water mouse's limbs are soaked in water. The sensorimotor nerve function test is conducted for mice one day before MCAO processing (i.e., pre-MCAO) and 1, 3 and 6 days after MCAO processing; the cerebral infarction volume is measured for checking any improvement in the stroke due to menthol on Day 7 after MCAO processing. The adhesive removal test is conducted on Day 1, 3 and 6 and the test results are compared with status at “pre-MCAO”. As shown in the experimental process, the time of a mouse finding and removing 4 (mm)×4 (mm) stickers, which have been adhered to its forepaws outside a test cage, is recorded (FIG. 2C-1, FIG. 2C-2) for statistic analysis as described in Section 2.1 (*p<0.05; **p<0.01; ***p<0.001). […] As shown in FIGS. 4B-1 and 4B-2, the test results are analyzed with the one-way ANOVA for further reviews through the multiple comparison analysis (Duncan's method) and statistics of between-group variances (*p<0.05; *: comparison with the “Water” group; comparison with the “16% ME” group; comparison with the “8% ME” group). […]"}, "[5]": {"test_system": "ischemic stroke mice (MCAO)", "assay": "Measurement of the cerebral infarction volume (TTC staining)", "format": "in vivo, mouse", "from_the_text": "Laboratory mice are divided into four groups: “Control” consisting of mice processed through MCAO for the ischemic stroke; “Water” consisting of mice which are processed for the ischemic stroke through MCAO and whose limbs are soaked in water; “MCAO+8% ME” consisting of mice which are processed for the ischemic stroke through MCAO and whose limbs are soaked in 8% menthol; “MCAO+16% ME” consisting of mice which are processed for the ischemic stroke through MCAO and whose limbs are soaked in 16% menthol. In Embodiment 2, menthol is prepared with 95% ethanol. Referring to the experiment schedule in FIG. 2A, mice are sacrificed on Day 7 for following analyses. Mice are processed for the ischemic stroke through MCAO on Day 0 and administrated with menthol once per day from Day 0 to Day 6. On the day of processing mice through MCAO, the limbs of a mouse resting 20 minutes after the operation are soaked in menthol for one minute; a mouse's limbs are soaked in menthol for 15 seconds only from Day 2 to Day 6; comparatively, a Water mouse's limbs are soaked in water. The sensorimotor nerve function test is conducted for mice one day before MCAO processing (i.e., pre-MCAO) and 1, 3 and 6 days after MCAO processing; the cerebral infarction volume is measured for checking any improvement in the stroke due to menthol on Day 7 after MCAO processing. After a mouse in each group is sacrificed through perfusion one week after MCAO processing, a specimen of the mouse's living brain is stained by TTC (FIG. 2D-2) for measurement of the cerebral infarction volume (mm^3) (FIG. 2D-1). The test results for the cerebral infarction volume are analyzed with the one-way ANOVA for further reviews through the multiple comparison analysis (Tukey's method) and statistics of between-group variances (*p<0.05). […] Laboratory mice are divided into five groups: “Water” consisting of mice which are processed for the ischemic stroke through MCAO and whose limbs are soaked in water; “8% ME” consisting of mice which are processed for the ischemic stroke through MCAO and whose limbs are soaked in 8% menthol; “16% ME” consisting of mice which are processed for the ischemic stroke through MCAO and whose limbs are soaked in 16% menthol; “Back-ME” consisting of mice which are processed for the ischemic stroke through MCAO and whose backs are soaked in menthol; “Oral-ME” consisting of mice which are processed for the ischemic stroke through MCAO and fed with menthol. […] As shown in FIGS. 4B-1 and 4B-2, the test results are analyzed with the one-way ANOVA for further reviews through the multiple comparison analysis (Duncan's method) and statistics of between-group variances (*p<0.05; *: comparison with the “Water” group; comparison with the “16% ME” group; comparison with the “8% ME” group). […]"}, "[6]": {"settings": "MCAO mice fed with oral menthol (Oral-ME)"}, "[7]": {"settings": "MCAO mice, limbs soaked in menthol (8% ME, 16% ME), topical vs oral comparison"}}}
{"smiles": "CC1CCC(C(C)C)C(O)C1", "note": "(stereo not shown) [menthol]", "values": [{"measurement": "retention time on a rotating rod (latency to fall, Day 10 vs Day 1)", "setting": "[1]", "value": "longer than the retention time on Day 1"}, {"measurement": "level of TH in substantia nigra", "setting": "[2]", "value": "recovered and similar to that of Control mice"}, {"measurement": "retention time on a rotating rod", "setting": "[3]; [6]", "value": "not extended effectively"}, {"measurement": "retention time on a rotating rod", "setting": "[3]; MCAO mice, backs administered with topical menthol (Back-ME)", "value": "not extended effectively"}, {"measurement": "retention time on a rotating rod", "setting": "[3]; MCAO mice, limbs soaked in 8% or 16% menthol once per day Day 0 to Day 6, Day 3 and Day 6", "value": "longer than the retention time performed by MCAO or Water mice"}, {"measurement": "retention time on a rotating rod", "setting": "[3]; [7]", "value": "longer than the retention time performed by Back-ME, Water or Oral-ME mice"}, {"measurement": "time spent in removing stickers", "setting": "[4]; limbs soaked in 8% or 16% menthol, Day 1, 3 and 6", "value": "significantly shorter than time spent by Control or Water mice"}, {"measurement": "time spent in finding stickers", "setting": "[4]; limbs soaked in 8% or 16% menthol, Day 6, vs Water mice", "value": "significantly less time"}, {"measurement": "time spent in finding and removing stickers", "setting": "[4]; limbs soaked in menthol (8% ME, 16% ME), vs Water, Back-ME, Oral-ME", "value": "significantly shorter than other mice"}, {"measurement": "cerebral infarction volume", "setting": "[5]; [6]", "value": "unchanged"}, {"measurement": "cerebral infarction volume", "setting": "[5]; MCAO mice, backs administered with menthol (Back-ME)", "value": "unchanged"}, {"measurement": "cerebral infarction volume", "setting": "[5]; MCAO mice, limbs soaked in 8% or 16% menthol, Day 7, TTC staining, vs Control and Water groups", "value": "significantly decreases"}, {"measurement": "cerebral infarction volume", "setting": "[5]; [7]", "value": "significantly subdued"}]}
